# From EPA's ToxValDB 9.5 (doi:10.2903/j.efsa.2020.6058)
# Legend:
# Typhlodromus pyri = assay: LR50; higher = less toxic; conditions: not reported; mortality
# Neomysis kadiakensis = conditions: chronic/long-term; duration: 28 days; development
# Mus musculus = conditions: acute; oral; M; mortality
# Tagia sp. = conditions: chronic/long-term; reproduction
# Hypoaspis aculeifer = conditions: chronic/long-term; reproduction
# Apis mellifera = conditions: acute; oral; unspecified; mortality
# Rattus norvegicus = conditions: clinical signs
# Bibionidae = conditions: chronic/long-term; duration: 28 days; development
# Serinus canaria = conditions: acute; oral; unspecified; mortality
# Anas platyrhynchos = conditions: chronic/long-term
smiles,measurement,setting,value
CC1(C)C(C=C(Cl)Cl)[C@@H]1C(=O)O[C@@H](C#N)c1ccc(F)c(Oc2ccccc2)c1 (stereo partly drawn) [beta-Cyfluthrin],LR50,Typhlodromus pyri,0.0025 g/ha
same,NOEC,Neomysis kadiakensis,0.00041 µg/L
same,LD50,Mus musculus,91 mg/kg-day
same,NOEC,Tagia sp.,0.825 mg/kg
same,NOEC,Hypoaspis aculeifer,0.97 mg/kg
same,LD50,Apis mellifera,0.05 µg/piece
same,NOAEL,Rattus norvegicus; reproduction developmental,1.39 mg/kg-day
same,NOAEL,"Rattus norvegicus; short-term, duration: 28 days",1 mg/kg-day
same,NOAEL,"Rattus norvegicus; subchronic, duration: 13 weeks, inhalation",0.02 mg/kg-day
same,LC50,"Oncorhynchus mykiss; acute, mortality",0.068 ng/mL
same,NOEC,"Oncorhynchus mykiss; chronic/long-term, duration: 58 days, growth",0.0042 µg/L
same,NOEC,Bibionidae,0.0057 µg/L
same,LD50,Serinus canaria,170 mg/kg-day
same,NOAEL,Anas platyrhynchos,2.6 mg/kg-day
